Measured values: patent US20240197700A1, “Methods and Compositions for Treating Lysosomal Storage Disorders” (Sanford Health, priority 2021, published 2024)

Legend:
[1] = tested on: NCL MEFs; assay: LysoTracker signal in Batten disease mouse embryonic fibroblasts; type: cell-based
Protocol: Wild type (WT) and mutant cells were treated with vehicle or LM11A-31 (100 nM, 1 μM, 10 μM). Cells were plated on day 0 and dosed with drug-containing media on DIV3 and DIV5. Concentrations of drug are shown on the x-axis above each image column; genotypes are shown to the left of each row. […] Increasing concentrations of LM11A-31 are shown along the x-axis.
Specific experimental details are included in figure legends. In general, after collection and preparation, MEFs and PNCs were dosed with vehicle or semaglutide (10 nM, 100 nM. or 1 μM) on DIV3 and DIV5. On DIV7, cells were exposed to the following dyes: Hoechst 33342 (1:1000 dilution), LysoTracker™ Red DND-99 (1:10,000 dilution), fixed. and imaged. Mice were injected three times per week with vehicle or semaglutide (2.571 μg/mouse, 25.71 μg/mouse) beginning at wean. Body weight was measured at 4, 6, 8, 12, and 16 weeks of age. At 16 weeks of age, Cln3^Δex7/8 mice along with age matched wildtype control mice were CO2 euthanized and intracardially perfused with PBS. Brains were collected and placed on a 1 mm sagittal brain block. Brains were sliced at the midline and 3 mm right of the midline. The 3 mm sagittal piece was flash frozen with −50° C. isopentane and then sectioned on a cryostat at 16 μm and placed on slides. For ASM measurements, slides were counterstained with DAPI. The other hemisphere was fixed in 4% PFA and sectioned at 50 microns on a vibratome. Immunohistochemistry was performed on free-floating sections. For SubC, GFAP, and CD68 immunolabeling, primary antibodies included mitochondrial anti-ATP synthase subunit C (Abcam, ab181243; 1:1000), anti-GFAP (Dako, Z0334; 1:5000), anti-CD68 (AbD Serotec, MCA1957; 1:2000), and secondary antibodies included anti-rabbit biotinylated (Vector Labs, BA-1000 1:1000) and anti-rat (Vector Labs, BA-9400 1:1000). Coverslips were mounted on slides using antifade-mounting media and were stored in the dark before imaging. ASM slides were imaged on a Nikon ECLIPSE™ Ni-E upright microscope with a CoolSNAP™ DYNO camera. Images were extracted from S1BF of the somatosensory cortex, CA3 of the hippocampus, and the VPM/VPL of the thalamus, with multiple images taken of multiple tissues from each animal. IHC slides were imaged and analyzed using an Aperio Digital Pathology Slide Scanner (AT2) and associated software. Images were extracted from the S1BF of the somatosensory cortex, the CA3 of the hippocampus, and the VPM/VPL of the thalamus.
The glucagon-like peptide-1 (GLP-1) analogue, semaglutide is an FDA approved type II diabetes drug. It has been shown in previous reports that GLP1 receptor (GLP1R) agonists decrease the release of inflammatory cytokines by modulating microglial activity, but existing studies have not examined any activity on lysosome-related pathways. To test whether GLP1R agonism would reduce Batten disease pathology, we tested semaglutide in Batten disease cell models (FIGS. 18-19). Wild type (WT) and mutant mouse embryonic fibroblasts (MEFs) were treated with vehicle or semaglutide (10 nM, 100 nM, 1 μM; see FIG. 18). Cells were plated on in vitro day 0 and dosed with drug-containing media on DIV3 and DIV5. Analysis occurred on DIV7. Concentrations of drug are shown on the x-axis above each image column; genotypes are shown to the left of each row. […] Increasing concentrations of semaglutide are shown along the x-axis. […] Treatment with semaglutide (10 nM, 100 nM, 1 μM) had no impact on the accumulation of autofluorescent storage material (ASM) in Cln1^R151X, Cln2^R207X, Cln3^Δex7/8, Cln6^nclf, and Cln8^mnd MEFs (FIG. 18B).

[2] = tested on: NCL PNCs; assay: Autofluorescent storage material (ASM) in Batten disease primary neuronal cultures; type: cell-based, mouse
Protocol: Specific experimental details are included in figure legends. […] On DIV7, cells were treated with the following dyes: Hoechst 33342 (1:1000 dilution), LysoTrackerT™ Red DND-99 (1:10,000 dilution), fixed, and imaged. Mice were given vehicle or AF38469 (78.125 μg/ml, 3.125 μg/ml, 0.3125 μg/ml or 0.03125 μg/ml equating approximately to 250 μg/mouse/day, 10 μg/mouse/day, 1 μg/mouse/day, and […], respectively, given a mouse's daily water intake of approximately 3.2 ml per day) in drinking water beginning at wean. Body weight was measured bi-weekly, and a force actimeter test was performed on Cln2^R207X mice at 10 weeks of age. Body weight was measured every month for Cln3^Δex7/8 mice. At 11 and 16 weeks of age, respectively, Cln2^R207X and Cln3^Δex7/8 mice along with age matched wild type control mice were CO2 euthanized and intracardially perfused with PBS. Brains were collected and placed on a 1 mm sagittal brain block. Brains were sliced at the midline and 3 mm right of the midline. One hemisphere was fixed in 4% PFA and sectioned at 50 microns on a vibratome. Immunohistochemistry was performed on free-floating sections. For mitochondrial ATP synthase subunit C (SubC), glial fibrillary acidic protein (GFAP), and cluster of differentiation 68 (CD68) immunolabeling, primary antibodies included anti-SubC (Abcam, ab181243; 1:1000), anti-GFAP (Dako, Z0334; 1:5000), anti-CD68 (AbD Serotec, MCA1957; 1:2000), and secondary antibodies included anti-rabbit biotinylated (Vector Labs, BA-1000 1:1000) and anti-rat (Vector Labs, BA-9400 1:1000). Coverslips were mounted on slides using antifade-mounting media and were stored in the dark before imaging. Sections were imaged and analyzed using an Aperio Digital Pathology Slide Scanner (AT2) and associated software. Images were extracted from S1BF of the somatosensory cortex and the VPM/VPL of the thalamus, with multiple images taken of multiple tissues from each animal.
• An increase in percent area or total area of positive autofluorescent storage material (ASM) signal in untreated NCL MEFs or PNCs relative to age-matched, wild type MEFs or PNCs is considered an increase in the accumulation of autofluorescent storage material, reflecting disease-related lysosomal dysfunction. • A decrease in percent area or total area of positive autofluorescent storage material signal in AF38469 treated MEFs and PNCs relative to age-matched, vehicle treated MEFs and PNCs is considered a reduction in the accumulation of autofluorescent storage material and thus a decrease in disease-related lysosomal dysfunction. • LysoTracker™ is an acidophilic dye that labels lysosomes and accumulation increases with an increase in lysosome size or number. Cell and mouse models of lysosomal storage disorders often have increased accumulation of lysosomes and therefore have a stronger LysoTracker™ signal. […]

CC[C@H](C)[C@H](N)C(=O)NCCN1CCOCC1 [LM11A-31, N-[2-(morpholin-4-yl)ethyl]-L-isoleucinamide]
LysoTracker signal ([1]; LM11A-31 100 nM, NCL MEFs): had no impact | LysoTracker signal ([1]; LM11A-31 1 μM (mid dose), Cln1^R151X, Cln2^R207X MEFs): significantly reduced | LysoTracker signal ([1]; LM11A-31 1 μM, Cln3^Δex7/8, Cln6^nclf, Cln8^mnd MEFs): decreasing trend | LysoTracker signal ([1]; LM11A-31 10 μM, Cln1^R151X and Cln2^R207X MEFs): decreasing trend | LysoTracker signal ([1]; LM11A-31 varying doses, Cln3^Δex7/8 and Cln6^nclf MEFs): decreasing trend | accumulation of autofluorescent storage material (ASM) ([2]; LM11A-31 100 nM, Cln6^nclf and Cln8^mnd PNCs): significantly reduced | accumulation of autofluorescent storage material (ASM) ([2]; LM11A-31 1 μM, Cln1^R151X PNCs): significantly reduced | accumulation of autofluorescent storage material (ASM) ([2]; LM11A-31 1 μM, Cln3^Δex7/8 PNCs): significantly reduced | accumulation of autofluorescent storage material (ASM) ([2]; LM11A-31 all treatment groups, Cln2^R207X PNCs): significantly reduced | ASM ([2]; LM11A-31 varying doses, neurons of all tested NCLs): significantly reduced

Cc1cccc(NC(=O)c2ccc(C(F)(F)F)cc2C(=O)O)n1 [AF38469, 2-((6-methylpyridin-2-yl)carbamoyl)-5-(trifluoromethyl)benzoic acid]
LysoTracker signal ([1]; 40 nM, 400 nM, 4 μM, Cln1^R151X, Cln2^R207X, Cln6^nclf, Cln8^mnd, Cln11^−/− MEFs, DIV7, vs NCL vehicle): significantly reduced | LysoTracker signal ([1]; 40 nM, Cln3^Δex7/8 MEFs, DIV7): significantly increased | LysoTracker signal ([1]; 400 nM, Cln3^Δex7/8 MEFs, DIV7): significantly reduced | LysoTracker signal ([1]; 4 μM, Cln3^Δex7/8 MEFs, DIV7): had no impact | accumulation of autofluorescent storage material (ASM) ([2]; 40 nM, 400 nM, 4 μM, Cln1^R151X, Cln2^R207X, Cln3^Δex7/8, Cln6^nclf PNCs, DIV7): significantly reduced | ASM levels ([2]; Cln8^mnd PNCs, DIV7): significantly increased

semaglutide
LysoTracker signal ([1]; semaglutide 10 nM and 100 nM, Cln8^mnd MEFs): had no impact | LysoTracker signal ([1]; semaglutide 10 nM, 100 nM, 1 μM, Cln1^R151X and Cln6^nclf MEFs): had no impact | LysoTracker signal ([1]; semaglutide 10 nM, 100 nM, 1 μM, Cln2^R207X MEFs): significantly reduced | LysoTracker signal ([1]; semaglutide 10 nM, Cln3^Δex7/8 MEFs): had no impact | LysoTracker signal ([1]; semaglutide 100 nM, 1 μM, Cln3^Δex7/8 MEFs): significantly reduced | LysoTracker signal ([1]; semaglutide 1 μM, Cln8^mnd MEFs): significantly reduced | autofluorescent storage material (ASM) signal ([2]; semaglutide 10 nM, 100 nM, 1 μM, Cln2^R207X and Cln6^nclf PNCs): significantly reduced | ASM levels ([2]; semaglutide 10 nM, 100 nM, Cln3^Δex7/8 PNCs): significantly reduced | ASM levels ([2]; semaglutide 10 nM, 1 μM, Cln1^R151X PNCs): significantly reduced | ASM levels ([2]; semaglutide 10 nM, 1 μM, Cln8^mnd PNCs): significantly reduced | ASM levels ([2]; semaglutide 100 nM, Cln1^R151X PNCs): had no impact | ASM levels ([2]; semaglutide 100 nM, Cln8^mnd PNCs): significantly elevated | ASM levels ([2]; semaglutide 1 μM, Cln3^Δex7/8 PNCs): significantly elevated
